Assay results as given in US6476008B1, “Use of diphosphonic acids or the physiologically acceptable salts or esters thereof in the preventive treatment of after-effects resulting from enlargement or replacement of the bladder” (Roche Diagnostics GmbH, priority 1997, dated 2002).

How the values were obtained:
[1] = tested on: rats with chronic kidney insufficiency and augmentation using gastrointestinal segments; assay: Chronic kidney insufficiency plus augmentation plasty, bone mass; assay type: in vivo, rat; details: rats with CNI (5/6 nephrectomy) and augmentation plasty, ibandronate administration
Text: In order to increase the clinical relevance of the results, the test procedure of Example 2 was repeated on rats with chronic kidney insufficiency. This test arrangement is based on a frequent situation among human beings in which a bladder previously damaged by an existing disturbance in urine transport (reflux or obstruction) leads to kidney insufficiency as a secondary result. It is known that kidney insufficiency in itself results in a disturbance in bone mineralisation (renal osteopathy), so that the need for a bladder extension plasty using segments of intestine further increases the risk of disturbed mineralisation. Kidney insufficiency was induced by 5/6 nephrectomy (compare Example 2). The other test procedure was as in Example 1.

[2] = tested on: female Sprague-Dawley rats augmented with excluded sigma; assay: Prevention of osteopenia after bladder augmentation plasty, bone density by DEXA; assay type: in vivo, rat; details: daily s.c. ibandronic acid up to 20 μg P/kg, 4 months, monthly DEXA
Text: Preventive effect of diphosphonates before the occurrence of osteopenia after augmentation plasty. Groups of 12 female Sprague-Dawley rats (6-8 week old, about […] body weight) were provided with stomach and ileum augmentation plasties and 12 animals were dummy-operated. At the same time, 24 animals were augmented with excluded sigma and divided at random into two groups, one group daily receiving a subcutaneous application of 0.9% NaCl (control) and the other group a daily subcutaneous application of ibandronic acid in the form of an aqueous solution in a dose up to 20 μg P/kg. The operative configuration of the augmentation plasties was after Lauvetz et al (J. Urol. 154: 899-902, 1995). The test period was 4 months, corresponding to about 4 years of human life (E. Grimm, Amer. J. Dig Dis. 7: 17-20, 1962).

CCCCCN(C)CCC(O)(P(=O)(O)O)P(=O)(O)O [ibandronate, 1-hydroxy-3-(N-methyl-N-pentyl)aminopropylidene-1,1-diphosphonic acid]
reduction in bone mass [1]: reduction in bone mass was prevented
reduction in bone mass (DEXA bone density, lumbar vertebrae) [2]: no reduction in bone mass
